Measurements published in DBAASP.
Converted amounts (≈) assume the structure as drawn.

Experiments:
Assay in all cases: ≥ marks a high value that may be exact or a test limit, other limits are often not marked, values filed in µg/mL are converted to µM
Bacillus subtilis = tested on: Bacillus subtilis
[1] = tested on: Candida albicans ATCC 2002
Escherichia coli ML-35p = tested on: Escherichia coli ML-35p
[2] = tested on: Pseudomonas aeruginosa ATCC 27853
[3] = tested on: Pseudomonas aeruginosa PAO1
[4] = tested on: Staphylococcus aureus ATCC 2592
[5] = tested on: Staphylococcus aureus ATCC 43300
[6] = tested on: Candida albicans ATCC 90028
[7] = tested on: Escherichia coli ATCC 25726
[8] = tested on: Staphylococcus aureus ATCC 25923
[9] = tested on: Escherichia coli ATCC 25922
[10] = tested on: Staphylococcus aureus NCTC 8325
Acinetobacter baumannii = tested on: Acinetobacter baumannii

Structure (SMILES)	MIC (Bacillus subtilis)	MIC [1]	MIC (Escherichia coli ML-35p)	MIC [2]	MIC [3]	MIC [4]	MIC [5]	MIC [6]	MIC [7]	MIC [8]	MIC [9]	MIC [10]	MIC (Acinetobacter baumannii)
CC[C@H](C)[C@H](NC(=O)CNC(=O)[C@@H](NC(=O)[C@H](C)NC(=O)[C@H](CCSC)NC(=O)[C@H](CCCCN)NC(=O)[C@@H](NC(=O)[C@@H](NC(=O)[C@@H]1CCCN1C(=O)CNC(=O)[C@H](CC(C)C)NC(=O)[C@@H](N)Cc1ccccc1)[C@@H](C)CC)[C@@H](C)CC)[C@@H](C)O)C(=O)N[C@@H](CC(C)C)C(=O)N1CCC[C@H]1C(=O)N[C@H](C(=O)N[C@@H](C)C(=O)N[C@H](C(=O)N[C@H]1CSSC[C@@H](C(=O)O)NC(=O)[C@H](CCCCN)NC(=O)[C@H](CCCCN)NC(=O)[C@H](CC(C)C)NC(=O)CNC(=O)[C@H](CCCCN)NC1=O)[C@@H](C)CC)[C@@H](C)O [FLGPIIKMATGILPTAICKGLKKC]	7.95 µM (≈ 20 µg/mL)	1.99 µM (≈ 5 µg/mL)	19.9 µM (≈ 50 µg/mL)	1.99 µM (≈ 5 µg/mL)	3.97 µM (≈ 9.99 µg/mL)	0.993 µM (≈ 2.5 µg/mL)	0.993 µM (≈ 2.5 µg/mL)	–	–	–	–	–	–
CC[C@H](C)[C@H](NC(=O)CN)C(=O)NCC(=O)N[C@@H](CCCCN)C(=O)N[C@@H](Cc1ccccc1)C(=O)N[C@@H](CC(C)C)C(=O)N[C@@H](Cc1cnc[nH]1)C(=O)N[C@@H](CO)C(=O)N[C@@H](C)C(=O)NCC(=O)N[C@@H](CCCCN)C(=O)N[C@@H](Cc1ccccc1)C(=O)NCC(=O)N[C@@H](CCCCN)C(=O)N[C@@H](C)C(=O)N[C@@H](Cc1ccccc1)C(=O)N[C@H](C(=O)NCC(=O)N[C@@H](CCC(=O)O)C(=O)N[C@H](C(=O)N[C@@H](CCSC)C(=O)N[C@@H](CCCCN)C(=O)N[C@@H](CO)C(=O)O)[C@@H](C)CC)[C@@H](C)CC [GIGKFLHSAGKFGKAFIGEIMKS]	–	–	–	–	–	–	–	25 µM (≈ 60.6 µg/mL)	12.5 µM (≈ 30.3 µg/mL)	50 µM (≈ 121 µg/mL)	–	–	–
CC[C@H](C)[C@H](NC(=O)CN)C(=O)N[C@@H](CC(C)C)C(=O)N[C@@H](CO)C(=O)N[C@@H](CO)C(=O)N[C@H](C(=O)N[C@@H](CCCCN)C(=O)NCC(=O)N[C@H](C(=O)N[C@@H](C)C(=O)N[C@@H](CCCCN)C(=O)NCC(=O)N[C@H](C(=O)N[C@@H](C)C(=O)N[C@@H](CCCCN)C(=O)N[C@@H](CC(N)=O)C(=O)N[C@H](C(=O)N[C@@H](C)C(=O)N[C@@H](C)C(=O)N[C@@H](CCC(N)=O)C(=O)N[C@@H](CC(C)C)C(=O)N[C@@H](CC(C)C)C(=O)N[C@@H](CC(=O)O)C(=O)N[C@H](C(=O)N[C@@H](CC(C)C)C(=O)N[C@@H](CCCCN)C(=O)N[C@H]1CSSC[C@@H](C(=O)O)NC(=O)CNC(=O)[C@H]([C@@H](C)O)NC(=O)[C@H]([C@@H](C)CC)NC(=O)[C@H](CCCCN)NC1=O)[C@@H](C)O)C(C)C)C(C)C)C(C)C)[C@@H](C)CC [GILSSIKGVAKGVAKNVAAQLLDTLKCKITGC]	–	–	–	–	–	–	–	≥ 62 µM	6 µM (≈ 19.2 µg/mL)	6 µM (≈ 19.2 µg/mL)	4 µM (≈ 12.8 µg/mL)	4 µM (≈ 12.8 µg/mL)	–
CC[C@H](C)[C@H](NC(=O)CN)C(=O)N[C@@H](Cc1c[nH]c2ccccc12)C(=O)N[C@@H](CC(=O)O)C(=O)N[C@H](C(=O)N[C@H](C(=O)N[C@@H](CCCCN)C(=O)N[C@@H](CO)C(=O)N[C@@H](CCSC)C(=O)NCC(=O)N[C@@H](CCCCN)C(=O)N[C@H](C(=O)N[C@@H](Cc1ccccc1)C(=O)N[C@@H](C)C(=O)NCC(=O)N[C@@H](C)C(=O)N[C@H](C(=O)N[C@@H](CC(C)C)C(=O)N[C@@H](CCC(N)=O)C(=O)N[C@@H](CC(N)=O)C(=O)N[C@@H](CC(C)C)C(N)=O)[C@@H](C)CC)C(C)C)[C@@H](C)CC)[C@@H](C)O [GIWDTIKSMGKVFAGAILQNL]	–	–	–	–	–	–	–	25 µM (≈ 56.5 µg/mL)	≥ 50 µM	12.5 µM (≈ 28.3 µg/mL)	–	–	12.5 µM (≈ 28.3 µg/mL)
